Experimental data reported in patent US20120046357A1, “Benzamide and Napthamide Derivatives Inhibiting Nuclear Factor-Kappa (B) - (NK-kB)” (Profectus Biosciences, Inc., priority 2009, published 2012).

Legend:
c-Rel = molecular target: T1, c-Rel (Homo sapiens, UniProt Q04864); assay: TransAM NF-κB family DNA binding ELISA, c-Rel; assay type: biochemical; settings: for IC50: binding to NF-κB consensus oligonucleotide, cells without % sign
T1 sequence (Q04864 2-619 limits assumed): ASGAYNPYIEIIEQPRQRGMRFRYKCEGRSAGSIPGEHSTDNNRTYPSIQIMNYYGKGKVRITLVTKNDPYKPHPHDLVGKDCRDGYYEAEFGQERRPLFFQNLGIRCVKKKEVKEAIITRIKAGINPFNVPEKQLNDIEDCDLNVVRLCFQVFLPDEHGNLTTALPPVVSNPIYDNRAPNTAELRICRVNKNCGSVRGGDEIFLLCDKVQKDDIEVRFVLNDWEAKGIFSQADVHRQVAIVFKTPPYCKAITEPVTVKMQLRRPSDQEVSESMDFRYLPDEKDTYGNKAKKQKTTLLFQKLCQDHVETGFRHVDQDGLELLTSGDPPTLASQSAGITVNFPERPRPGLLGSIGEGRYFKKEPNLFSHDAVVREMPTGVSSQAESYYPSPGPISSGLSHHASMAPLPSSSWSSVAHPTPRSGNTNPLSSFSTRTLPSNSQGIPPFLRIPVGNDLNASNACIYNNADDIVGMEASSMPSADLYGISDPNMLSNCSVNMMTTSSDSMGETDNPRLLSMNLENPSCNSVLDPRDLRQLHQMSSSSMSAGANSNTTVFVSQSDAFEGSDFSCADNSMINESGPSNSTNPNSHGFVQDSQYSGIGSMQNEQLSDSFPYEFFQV
Procedure: (§1) The binding activity of NF-κB heterodimer or homodimer subunits from activated nuclear extracts or purified recombinant NF-κB proteins exposed to the drug compounds was evaluated using the TransAM NF-κB Family binding ELISA (Active Motif). 3-5 μg of nuclear extracts from TNFα activated Hela or Raji cells (Active Motif) or 20 ng of purified recombinant proteins (p65 and p50 from Active Motif, p52 from Santa Cruz) were incubated for 1 hour at room temperature with 20 μL drug compounds diluted in Complete Lysis buffer without DTT. Treated samples were then transferred to 30 μL Complete Binding Buffer (with DTT) in microplate wells pre-coated with the NF-κB consensus oligonucleotide. […] The plate was incubated for 1 hour at room temperature with gentle shaking and then washed 3 times with 200 μL 1× Wash Buffer. NF-κB p65, p50, p52, RelB, or c-Rel subunits bound to the plate were detected with 100 μL of the primary antibody (diluted 1:1000 in 1× Antibody Buffer) specific for that subunit. The plate was incubated for 1 hour at room temperature and then washed 3 times with 200 μL 1× Wash Buffer. Next, 100 μL of a HRP conjugated goat anti-rabbit antibody (diluted 1:1,000 in 1× Antibody Buffer) was added to each well. The plate was incubated for 1 hour at room temperature and then washed 4 times with 200 μL 1× Wash Buffer. 100 μL of room temperature Developing Solution was added to each well. The reaction was allowed to develop for 2-10 minutes until a medium dark blue color developed (depending on the subunit activity in the lot of extract or lot of recombinant protein used) and then the reaction was stopped with 100 μL Stop Solution yielding a yellow color. Absorbance was recorded using a Becton-Dickinson DTX 880 Multimode Detector at 450 nm with a reference wavelength subtracted at 620 nm. FIGS. 2, 3 and 4 illustrate the effect of Example 10 on inhibiting RelA, RelB and c-Rel binding to NF-κB sites.

NF-κB [1] = assay: 293/NFkB-luc reporter cell assay (TNF-α induced luciferase expression); assay type: cell-based; settings: 293 cells; for EC50: 293/NFkB-luc, pNF-κB-luc reporter, 2 h pretreatment, 20 ng/ml TNF-α 18 h
Procedure: (§2) Two reporter cell assays were used to determine the ability of the compound of Example 10 to inhibit NF-κB driven transcription. The first assay was a 293-cell based assay with a stably integrated pNF-κB-luc reporter plasmid containing 3 NF-κB promoter elements. The second assay was a 293-cell based assay with a stably integrated pTRH1-NF-κB-dscGFP reporter containing 4 NF-κB promoter elements. Cells were treated with 0, 0.2, 1, 10, 20 and 40 μM of the compound of Example 10 for 2 hours then were induced with 20 ng/ml TNF-α for 18 hours. Following the induction, luminescence or fluorescence was quantified using a Beckman-Coulter 2300 plate reader. […] These values represent the median value generated from three independent experiments. As a control, 0.5% DMSO treated and untreated cells were compared to verify that the compound of Example 10 had no effect on the expression of luciferase or in the readout of the assay. There was a slight decrease in the output from the assay in the DMSO treated population although it was not statistically significant. As a result of the controls, the decrease in activity in the drug treated samples was compared to the DMSO control sample.

p65 (RelA) = molecular target: T2, p65 (RelA) (Homo sapiens, UniProt Q04206); assay: TransAM NF-κB family DNA binding ELISA, p65; assay type: biochemical; settings: binding to NF-κB consensus oligonucleotide
T2 construct: purchased Active Motif
T2 sequence (Q04206 whole entry): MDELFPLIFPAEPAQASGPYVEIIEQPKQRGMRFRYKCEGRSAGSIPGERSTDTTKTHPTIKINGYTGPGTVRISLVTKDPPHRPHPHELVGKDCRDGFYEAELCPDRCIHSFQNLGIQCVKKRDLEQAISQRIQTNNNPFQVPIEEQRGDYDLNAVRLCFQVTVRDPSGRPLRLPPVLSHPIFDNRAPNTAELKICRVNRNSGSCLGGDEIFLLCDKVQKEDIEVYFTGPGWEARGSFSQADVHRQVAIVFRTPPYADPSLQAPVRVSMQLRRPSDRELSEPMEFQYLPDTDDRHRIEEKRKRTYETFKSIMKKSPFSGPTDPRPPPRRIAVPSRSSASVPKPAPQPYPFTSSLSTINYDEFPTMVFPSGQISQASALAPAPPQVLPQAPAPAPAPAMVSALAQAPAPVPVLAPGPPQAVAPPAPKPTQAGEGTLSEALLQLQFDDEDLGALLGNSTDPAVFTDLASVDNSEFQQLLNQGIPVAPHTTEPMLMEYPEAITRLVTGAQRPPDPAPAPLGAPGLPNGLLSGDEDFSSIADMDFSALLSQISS
Procedure: as §1

RelB = molecular target: T3, RelB (Homo sapiens, UniProt Q01201); assay: TransAM NF-κB family DNA binding ELISA, RelB; assay type: biochemical; settings: for IC50: binding to NF-κB consensus oligonucleotide, cells without % sign
T3 sequence (Q01201 1-579): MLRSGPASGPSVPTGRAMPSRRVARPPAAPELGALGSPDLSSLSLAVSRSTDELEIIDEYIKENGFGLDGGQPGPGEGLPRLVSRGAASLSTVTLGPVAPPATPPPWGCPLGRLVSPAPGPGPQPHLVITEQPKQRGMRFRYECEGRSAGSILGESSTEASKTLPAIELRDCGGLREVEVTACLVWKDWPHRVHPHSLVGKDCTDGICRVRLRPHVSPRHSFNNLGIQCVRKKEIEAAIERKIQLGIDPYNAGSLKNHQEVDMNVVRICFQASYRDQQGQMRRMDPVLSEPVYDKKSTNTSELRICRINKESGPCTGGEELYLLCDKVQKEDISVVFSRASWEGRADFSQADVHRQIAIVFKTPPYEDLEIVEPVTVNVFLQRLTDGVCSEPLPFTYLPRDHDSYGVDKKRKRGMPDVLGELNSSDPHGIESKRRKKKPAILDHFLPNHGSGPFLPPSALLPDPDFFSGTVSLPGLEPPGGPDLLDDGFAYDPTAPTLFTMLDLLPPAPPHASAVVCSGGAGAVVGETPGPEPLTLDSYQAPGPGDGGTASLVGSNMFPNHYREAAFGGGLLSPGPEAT
Procedure: as §1

NF-κB [2] = assay: NF-κB/293/GFP reporter cell assay (TNF-α induced GFP expression); assay type: cell-based; settings: Homo sapiens; for EC50: HEK293, 293 cells, pTRH1-NF-κB-dscGFP reporter, 2 h pretreatment, 20 ng/ml TNF-α 18 h, read-out: NF-KB/293/GFP EC50
Procedure: as §2

SMILES | inhibition at 5 µM (c-Rel) | EC50 (NF-κB [1]) | IC50 (p65 (RelA)) | inhibition at 5 µM (RelB) | EC50 (NF-κB [2]) | IC50 (c-Rel) | IC50 (NF-κB [1]; Homo sapiens, HEK293, median of three independent experiments, 20 ng/ml TNF-α, read-out: median IC50, inhibition of expression of the luciferase gene) | IC50 (RelB) | IC50 (NF-κB [2]; HEK293, median of three independent experiments, 293 cells, 20 ng/ml TNF-α, read-out: median IC50, inhibition of expression of the Green fluorescent protein gene)
Cc1ccc(C(=O)NC2=CC(=O)C3OC3C2O)c(O)c1 (racemic) [Example 3, (±)-2-hydroxy-N-(2-hydroxy-5-oxo-7-oxabicyclo[4.1.0]hept-3-en-3-yl)-4-methylbenzamide] | 5% | 20 µM | 17 µM | 10% | 9 µM | – | – | – | –
Cc1cccc(C(=O)NC2=CC(=O)C3OC3C2O)c1O (racemic) [Example 4, (±)-2-hydroxy-N-(2-hydroxy-5-oxo-7-oxabicyclo[4.1.0]hept-3-en-3-yl)-3-methylbenzamide] | 0% | 19 µM | 36.3 µM | 9% | 18 µM | – | – | – | –
O=C(NC1=CC(=O)C2OC2C1O)c1cccc(Cl)c1O (racemic) [Example 6, (±)-3-chloro-2-hydroxy-N-(2-hydroxy-5-oxo-7-oxabicyclo[4.1.0]hept-3-en-3-yl)benzamide] | 7% | 37 µM | 19.4 µM | 13% | 14 µM | – | – | – | –
O=C(NC1=CC(=O)C2OC2C1O)c1cc(Br)ccc1O (racemic) [Example 9, (±)-5-bromo-2-hydroxy-N-(2-hydroxy-5-oxo-7-oxabicyclo[4.1.0]hept-3-en-3-yl)benzamide] | 20% | 27 µM | 17.7 µM | 32% | 5.2 µM | – | – | – | –
COc1ccc2cc(O)c(C(=O)NC3=CC(=O)C4OC4C3O)cc2c1 (racemic) [Example 11, (±)-3-hydroxy-N-(2-hydroxy-5-oxo-7-oxabicyclo[4.1.0]hept-3-en-3-yl)-7-methoxy-2-naphthamide] | – | 7.7 µM | 479 µM | – | 5 µM | 16 µM | – | 10 µM | –

Further molecules by falling EC50 (NF-κB [1]), results first:

inhibition at 5 µM (c-Rel) | EC50 (NF-κB [1]) | IC50 (p65 (RelA)) | inhibition at 5 µM (RelB) | EC50 (NF-κB [2]) | IC50 (c-Rel) | IC50 (NF-κB [1]; Homo sapiens, HEK293, median of three independent experiments, 20 ng/ml TNF-α, read-out: median IC50, inhibition of expression of the luciferase gene) | IC50 (RelB) | IC50 (NF-κB [2]; HEK293, median of three independent experiments, 293 cells, 20 ng/ml TNF-α, read-out: median IC50, inhibition of expression of the Green fluorescent protein gene) | SMILES
1% | 36 µM | 66.3 µM | 6% | 3.4 µM | – | – | – | – | O=C(NC1=CC(=O)C2OC2C1O)c1ccc(C(F)(F)F)cc1O (racemic) [Example 1, 2-hydroxy-N-(2-hydroxy-5-oxo-7-oxabicyclo[4.1.0]hept-3-en-3-yl)-4-(trifluoromethyl)benzamide]
6% | 32 µM | 14.2 µM | 17% | 6.1 µM | – | – | – | – | COc1ccc(C(=O)NC2=CC(=O)C3OC3C2O)c(O)c1 (racemic) [Example 5, (±)-2-hydroxy-N-(2-hydroxy-5-oxo-7-oxabicyclo[4.1.0]hept-3-en-3-yl)-4-methoxybenzamide]
2% | 21 µM | 488 µM | 6% | 4.7 µM | – | – | – | – | O=C(NC1=CC(=O)C2OC2C1O)c1cc2ccccc2cc1O (racemic) [Example 7, (±)-3-hydroxy-N-(2-hydroxy-5-oxo-7-oxabicyclo[4.1.0]hept-3-en-3-yl)-2-naphthamide]
7% | 12 µM | 26.3 µM | 18% | 7 µM | – | – | – | – | O=C(NC1=CC(=O)C2OC2C1O)c1ccc(Cl)cc1O (racemic) [Example 2, (±)-4-chloro-2-hydroxy-N-(2-hydroxy-5-oxo-7-oxabicyclo[4.1.0]hept-3-en-3-yl)benzamide]
– | 8.7 µM | 3.9 µM | – | 2.5 µM | 17 µM | 8.7 µM | 23 µM | 2.5 µM | CN(C)c1ccc(C(=O)NC2=CC(=O)C3OC3C2O)c(O)c1 (racemic) [Example 10, (±)-4-(dimethylamino)-2-hydroxy-N-(2-hydroxy-5-oxo-7-oxabicyclo[4.1.0]hept-3-en-3-yl)benzamide]
3% | 7.1 µM | 45.2 µM | 15% | 7.1 µM | – | – | – | – | O=C(NC1=CC(=O)C2OC2C1O)c1ccc2ccccc2c1O (racemic) [Example 8, (±)-1-hydroxy-N-(2-hydroxy-5-oxo-7-oxabicyclo[4.1.0]hept-3-en-3-yl)-2-naphthamide]
